Patent US20140350097A1, “TREATMENT OF HYPOTENSION ASSOCIATED WITH HEMODIALYSIS” (priority 2013, published 2014)

Columns and labels:
[1] = tested on: rat model of shock induced by hemorrhage; test: Hemorrhagic shock rat model; type: in vivo; conditions: rats, 0.1 mmol/kg/hour
Text: Treatment of these rats with NOX-100 (0.1 mmol/kg/hour) reduced the blood volume needed to maintain the blood pressure during shock and improved mean arterial pressure after resuscitation.

[2] = tested on: rats; test: 4-day infusion toxicity in rats (2000 mg/kg over 2 hours); type: in vivo, rat
Protocol: The high dose of 2000 mg/kg of NOX-100 administered over a period of 2 hours was again tested in a group of rats for 4 consecutive days. […] Mitotic figures in basophilic tubules were also noted. These changes were considered treatment related. […] It appeared that female rats had lower plasma concentrations of NOX-100 compared to males.

[3] = tested on: beagle dogs; test: 14-day infusion toxicity in beagle dogs; type: in vivo
Protocol: Based on the findings from the 4-day study, doses of NOX-100 at 100, 500 and 1000 mg/kg/day infused over a period of 8 hours for 14 days were evaluated in beagle dogs. […] Therefore the high dose of 1000 mg/kg/day was reduced to 250 mg/kg/day on Days 8-14. […] The low dose of 100 mg/kg/day over a period of 8 hours was considered a no-effect level.
The no adverse effect level in dogs (the animal that appeared most sensitive to the effects of NOX-100) was 100 mg/kg given as an 8 hour daily infusion for 14 days. In this study, the NOX-100 was administered as an 11.1 mg/kg bolus loading dose and an 8-hour 11.1 mg/kg/hr infusion maintenance dose.

[4] = Preliminary intravenous pharmacokinetics in mice; type: in vivo, mouse; conditions: bolus injection 30 mg/kg i.v.
Protocol: (§1) The pharmacokinetics of intravenously administered NOX-100 was evaluated in mice, rats and dogs. Preliminary pharmacokinetic studies were conducted using a bolus injection of 30 mg/kg. Post injection, the drug was rapidly eliminated in all three species in a bi-exponential manner with a beta-t½ of approximately 6, 30 and 40 minutes in the mouse, rat and dog, respectively. […] The volume of distribution was around 20-30% of body weight and was similar in the three species. This is likely due to the hydrophilic nature of the drug and may reflect the distribution of NOX-100 primarily in the extracellular space.

[5] = tested on: beagle dogs; test: Four-week repeated dose intravenous toxicity study in beagle dogs with two-week recovery; type: in vivo, dog
Protocol: The objective of this study was to investigate the toxicity of NOX-100 when administered as a single intravenous injection once daily for four consecutive weeks to beagle dogs and to determine the reversibility of changes which were established as treatment related. In addition, the systemic exposure of the animals to the test substance was determined and evaluated for correlation with dose and time after starting treatment.
NOX-100 was administered intravenously as a daily single dose (20 mL/kg administered over approximately 2.5 minutes) of 100, 300, and 1000 mg/kg for four weeks in Beagle dogs (n=17 dogs per gender−unbalanced randomization across treated groups). Following the termination of treatment, an additional group of dogs in the Control and highest dose group were held for a period of two weeks in order to determine if the potential treatment related changes were reversible.

[6] = Preliminary intravenous pharmacokinetics in dogs; type: in vivo, dog; conditions: bolus injection 30 mg/kg i.v.
Protocol: as §1

[7] = Preliminary intravenous pharmacokinetics in rats; type: in vivo, rat; conditions: bolus injection 30 mg/kg i.v.
Protocol: as §1

[8] = tested on: male Wistar rats; test: Preliminary acute single dose toxicity study in male Wistar rats; type: in vivo, rat; conditions: single I.V. 30-608 mg/kg or S.C. 250-1,000 mg/kg, 7-day observation
Protocol: NOX-100 has been evaluated in a number of toxicological studies, including acute (single-dose in rats and dogs; 4-day dosing in rats and dogs), subacute (14-day dosing in rats and dogs) studies, and in vitro mutagenicity testing.
In a preliminary acute single dose study, male Wistar rats were administered NOX-100 intravenously (I.V.) at doses of 30-608 mg/kg or subcutaneous (S.C.) doses of 250-1,000 mg/kg. Each dosing was followed by a 7-day observation period. […] Another group of male Wistar rats were administered NOX-100 with Fe^2+ as a single SC dose at 250-1,000 mg/kg. […] Without wishing to be bound by any theory, it is believed that this discoloration was due to the color of the compound at the high dose.

[9] = Binding of .NO by NOX-100 in the presence of a metal ion; conditions: in the presence of a metal ion (e.g., iron)
Text: As illustrated in Scheme 1 following, the binding is a two-step process. First, two molecules of NOX-100 combine with Fe^2+ to form a complex, [(NOX)2-Fe], which is held together via the planar coordination of the Fe^2+ by two dithiocarbamates. Next, the [(NOX)2-Fe] complex tightly binds .NO, forming an .NO-containing complex, [(NOX)2-Fe—NO]. See e.g., Yokokawa et al, 1995, Id.; Kang et al, 1997, Id.

[10] = 24 hours after hemorrhagic shock
[11] = 2000 mg/kg over 2 hours, 4 consecutive days
[12] = both, beagle, dog, in vivo, 4 weeks

## CN(C[C@H](O)[C@@H](O)[C@H](O)[C@H](O)CO)C(=S)S [NOX-100, N-methyl-D-glucamine dithiocarbamate]
[1]
  blood volume needed to maintain the blood pressure during shock: reduced
  mean arterial pressure after resuscitation: improved
[1]; [10]
  elevation of serum ornithine carbamoyltransferase (indicator of hepatic injury): prevented
  inflammatory gene expression: prevented
  transcription factor activation: prevented
[2]; 2000 mg/kg
  plasma concentrations in female rats compared to males: lower
[2]; [11]
  hemoglobin and hematocrit values: slight decrease
  red blood cell count: slight decrease
[2]; 5 males, 2000 mg/kg/day, 2-hour infusion, 4 consecutive days
  animals with cortical tubular basophilia of the kidney, occasionally with tubular dilatation: 5/5
[2]; HPLC, 1 and 1.75 hours after infusion, 2000 mg/kg
  plasma concentrations on Day 4 compared to Day 1: slightly higher
[2]; males, 2000 mg/kg/day, 4 consecutive days
  mitotic figures in basophilic tubules: noted
[3]; 1000 mg/kg/day, 8-hour infusion
  mortality: One male dog in the high dose (1000 mg/kg/day) group died on Day 6
[3]; dog, in vivo
  dose concentration relationship: proportional dose concentration relationship
  mean plasma concentration throughout Days 1, 7 and 14: similar
  mean steady state plasma concentrations, males versus females: no differences
[3]; dogs
  dose level of initial toxicity as multiple of the no adverse effect level: 5 times
[3]; dogs, 8 hour daily infusion for 14 days
  no adverse effect level: 100 mg/kg
[3]; dogs, over a period of 8 hours, 14 days
  no-effect level: 100 mg/kg/day
[3]; each day
  mean plasma concentration between 4 to 7.75 hours from the start of infusion: remained constant
[3]; generally at 500 or 1000 mg/kg/day
  clinical and laboratory findings accompanied by renal lesions: Clinical signs of deterioration, reduction in body weight and food intake together with changes in serum chemistry and creatinine clearance
[3]; male, 1000 mg/kg/day
  histopathological examination of the animal that died: renal lesions consisting of tubular basophilia and dilatation, hyperplasia of the transitional epithelium of the papilla and some vascular hemorrhage or congestion
[4]; in vivo, iv, mouse, read-out: beta-t½
  half-life: ~6 min
[4]; mice
  volume of distribution: 20-30 % of body weight
[4]; mouse, in vivo, iv, mice, read-out: clearance rate
  clearance: 26 mL/min/kg
[5]; [12]
  clinical observation: salivation: salivation in the 1000 mg/kg group
  clinical observation: vomiting: vomiting in the 100 mg/kg or higher dose groups
[5]; dog, in vivo
  body weight, food consumption, hematology, EKG, ophthalmology or organ weights: no changes
  gender related difference in systemic exposure: no gender related difference
  incidence of vomiting after dosing, Treated groups versus group not dosed: higher
  microscopic changes due to study substance: no microscopic changes
  reversibility of other changes: reversed completely or showed a tendency for reversal
  site of main toxicological findings: kidneys and urinary bladder
  systemic exposure (blood levels) versus dose: linear dose dependent increase
  urine specific gravity and urine volume: decrease in specific gravity and increase in urine volume
[5]; dog, in vivo, 1000 mg/kg
  histopathological examination: pelvic mucosa and urinary bladder: Inflammatory cell infiltration in the pelvic mucosa, and erosion of mucosa in the urinary bladder
  kidney histopathology of the moribund animal: moderate basophilia of the proximal renal tubules, pelvic mucosal epithelial hyperplasia, hyaline droplets in the proximal tubular epithelium and pelvic mucosal epithelium in the kidneys
  laboratory determinations of sodium: increased
  laboratory results on the day of necropsy, moribund animal: an increased white cell count with increased segmented neutrophils and an increase in gamma GT, ALP, urea nitrogen, creatinine, glucose, cholesterol, phospholipids, triglyceride, total protein, albumin, inorganic phosphorus and magnesium and a decrease in sodium and chloride
  moribundity: became moribund six days after starting treatment
  necropsy organ weights of the moribund animal: increased absolute and relative weight of the liver, kidneys and adrenals with a decrease noted in the thymus weight
  other histopathological findings in the moribund animal: follicular atrophy of the mesenteric lymph node, acute atrophy of the thymus, glycogen accumulation in the liver, erosion of mucosa in the urinary bladder, and hypertrophy of cortical cells in the fascicular zone of the adrenals
  renal papilla of the moribund animal: for the most part necrotic
[5]; dogs, pulse IV injection daily, four weeks
  no adverse effect level: less than 100 mg/kg
[5]; male, beagle, dog, in vivo, 1000 mg/kg
  clinical signs in the moribund animal: vomiting occurred on Days 1 to 6, no stools were passed on Days 4 to 6, decreased locomotor activity was noted on Days 5 to 6 and hypothermia and lateral position was noted on Day 6
[6]; dog, in vivo, iv, dogs, read-out: clearance rate
  clearance: 4.1 ± 0.6 mL/min/kg
[6]; dogs
  volume of distribution: 20-30 % of body weight
[6]; in vivo, iv, dog, read-out: beta-t½
  half-life: ~40 min
[7]; in vivo, iv, rat, read-out: beta-t½
  half-life: ~30 min
[7]; rat, in vivo, iv, rats, read-out: clearance rate
  clearance: 15 ± 1 mL/min/kg
[7]; rats
  volume of distribution: 20-30 % of body weight
[8]
  mortality and overt signs of toxicity: no mortality or overt signs of toxicity
[9]
  binding of .NO: binds .NO very tightly
